US10239831B2, “Method for producing bis(3-aminophenyl)disulfides and 3-aminothiols” (BAYER CROPSCIENCE AG, priority 2012, dated 2019)

Test: log P determination
Format: physicochemical
Conditions: for chromatographic logP: HCOOH (acidic); for logP: neutral

Compound | chromatographic logP | logP
Nc1cc(SSc2cc(N)c(Cl)cc2Cl)c(Cl)cc1Cl [Example 14, 3,3′-Disulphanediylbis(4,6-dichloroaniline)] | 5.14 | 4.95
O=[N+]([O-])c1cc(SSc2cc([N+](=O)[O-])c(Cl)cc2Cl)c(Cl)cc1Cl [Example 5, 1,1′-Disulphanediylbis(2,4-dichloro-5-nitrobenzene)] | 5.69 | 5.64
